Results published in PMC6471485, “Selective Inhibitors of a Human Prolyl Hydroxylase (OGFOD1) Involved in Ribosomal Decoding” (Chemistry (Weinheim an Der Bergstrasse, Germany), 2019).
Entries after “also recorded” stand apart in the source; their conditions may differ.

Experiments:
Ofd1 = target: T1, Ofd1 (Schizosaccharomyces pombe, UniProt Q11120); assay: Ofd1 inhibition assay (Figure S12); format: biochemical, yeast; settings: Ofd1 1 µM (Figure S12)
T1 sequence (Q11120 1-515): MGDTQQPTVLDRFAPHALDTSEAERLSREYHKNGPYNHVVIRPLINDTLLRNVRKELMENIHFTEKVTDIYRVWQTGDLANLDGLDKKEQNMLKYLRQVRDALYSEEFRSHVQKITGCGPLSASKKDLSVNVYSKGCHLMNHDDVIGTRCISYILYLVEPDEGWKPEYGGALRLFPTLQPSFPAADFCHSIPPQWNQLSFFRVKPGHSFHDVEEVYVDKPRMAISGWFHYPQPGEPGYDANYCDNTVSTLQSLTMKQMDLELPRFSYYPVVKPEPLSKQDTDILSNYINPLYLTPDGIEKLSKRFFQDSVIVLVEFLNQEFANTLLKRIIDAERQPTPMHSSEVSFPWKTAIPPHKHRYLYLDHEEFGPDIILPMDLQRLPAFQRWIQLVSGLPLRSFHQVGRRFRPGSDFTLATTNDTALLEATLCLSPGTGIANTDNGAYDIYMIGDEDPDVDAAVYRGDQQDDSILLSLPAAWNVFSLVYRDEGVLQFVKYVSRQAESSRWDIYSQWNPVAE

[1] = MDR1-MDCK in vitro permeability assay (Cyprotex); format: in vitro ADME; settings: dog; MDR1-MDCK; read-out: permeability coefficient
Description: (§1) supplemented with 80 µM Zn(II), 70 µM of inhibitor, all in 50 mM Tris-d11, pH 7.5, 10 % D2O, […]
(§2) Cell Culture and Immunoblotting
(§3) HeLa cells were cultured in DMEM media supplemented with 10 % fetal bovine serum, 4 mM L-glutamine, 100 U/mL penicillin, and 100 µg/mL streptomycin. Cells were treated with the indicated compounds, prepared in 1% DMSO, for 5 h. Following a PBS buffer rinse, cells were lysed in urea/SDS buffer supplemented with 1 mM dithiothreitol. Cell extracts were analyzed by SDS-PAGE, electroblotted onto PVDF membranes (Millipore) and probed with anti-HIF-1α antibody (clone 54, BD Transduction Laboratories) at 1:1000 dilution for 1 h at room temperature. The HRP-conjugated secondary antibody was then applied at room temperature for 1 h. Target proteins were detected with SuperSignal Chemiluminescent […]
(§4) ADMET in vitro Predictors
(§5) S9 liver microsome stability assays and MDCK-MDR1 efflux assays were carried out for CCT3 and CCT4 by Cyprotex (UK). Additional details are provided later in the Supporting […]
(§6) The solubility and metabolic stability of CCT3 and CCT4 was preliminarily evaluated using a S9 liver microsome assay (Cyprotex, UK). According to the assay, CCT3 and CCT4 had […]
(§7) respectively, and are thus classified as having low clearance (< 8.6 µL/min/mg protein).
(§8) The cell permeability of CCT3 and CCT4 were evaluated using an MDR1-MDCK in vitro […]
(§9) able to penetrate the blood-brain barrier. The permeability coefficients were determined to be

MDR1-MDCK = MDR1-MDCK in vitro permeability assay (Cyprotex); format: in vitro ADME; settings: for cell permeability, in words: MDR1-MDCK; for predicted blood-brain barrier permeability, in words: prediction from MDR1-MDCK assay
Description: as §1, §2, §3, §4, §5, §6, §7, §8, §9

| SMILES | inhibition of Ofd1, in words (Ofd1) | Papp [1] [×10⁻⁶ cm/s] | cell permeability, in words (MDR1-MDCK) | predicted blood-brain barrier permeability, in words (MDR1-MDCK; listed as CCT3) | predicted blood-brain barrier permeability, in words (MDR1-MDCK; listed as CCT4) |
| --- | --- | --- | --- | --- | --- |
| Cn1c(O)c(C(=O)CCc2ccccc2)c(=O)n(C)c1=O [compound 26] | potently inhibit | 58.5 | good cell permeability properties | brain uptake is likely; also recorded: predicted to be permeable to the blood brain barrier | – |
| Cn1c(O)c(C(=O)CCc2cccs2)c(=O)n(C)c1=O [compound 42] | potently inhibit | 62.7 | good cell permeability properties | – | brain uptake is likely; also recorded: predicted to be permeable to the blood brain barrier |
